Here are results for 19 molecules from patent US10172863B2, “Purine derivatives useful as HSP90 inhibitors” (Sloan-Kettering Institute for Cancer Research, priority 2009, dated 2019).

The structures appear in SMILES notation.

The test system of this assay is SKBr3 cell Hsp90. Description: EC50 for Hsp90 binding in SKBr3 cell lysate. The note with it: read-out: EC50, binding to SKBr3 cell Hsp90.
Consider `CC(C)NCCCn1c(Sc2cc3c(cc2-c2cc(C(F)(F)F)cc(C(F)(F)F)c2)OCO3)nc2c(N)ncnc21` [Compound 4A-3, 8-(6-(3,5-bis(trifluoromethyl)phenyl)benzo[d][1,3]dioxol-5-ylthio)-9-(3-(isopropylamino)propyl)-9H-purin-6-amine], for which the EC50 (in general, the midpoint of the concentration-response curve) was > 100 µM. Under `COc1ccc(-c2cccs2)c(Sc2nc3c(N)ncnc3n2CCNCC(C)(C)C)c1` [Compound 7D-3, 8-(5-methoxy-2-(thiophen-2-yl)phenylthio)-9-(2-(neopentylamino)ethyl)-9H-purin-6-amine] stands 0.24 µM; under `Nc1ncnc2c1nc(Sc1cc3c(cc1I)OCCO3)n2CCCn1ccnc1` [Compound 5A-4, 9-(3-(1H-imidazol-1-yl)propyl)-8-(7-iodo-2,3-dihydrobenzo[b][1,4]dioxin-6-ylthio)-9H-purin-6-amine], 0.0628 µM; under `Cc1ccc(-c2cc3c(cc2Sc2nc4c(N)ncnc4n2CCCNC(C)C)OCO3)o1` [Compound 4C-8, 9-(3-(isopropylamino)propyl)-8-(6-(5-methylfuran-2-yl)benzo[d][1,3]dioxol-5-ylthio)-9H-purin-6-amine], 0.037 µM. The value for `CC(C)NCCCn1c(Sc2cc3c(cc2-c2ncco2)OCCO3)nc2c(N)ncnc21` [Compound 5B-34, 9-(3-(isopropylamino)propyl)-8-((7-(oxazol-2-yl)-2,3-dihydrobenzo[b][1,4]dioxin-6-yl)thio)-9H-purin-6-amine] was 0.0035 µM; that for `CC(C)CNCCN1C(Sc2cc3c(cc2I)OCCO3)=NC2C(N)=NC=NC21` (stereo not shown) [Compound 5A-2, 8-(7-Iodo-2,3-dihydrobenzo[b][1,4]dioxin-6-ylthio)-9-(2-(isobutylamino)ethyl)-5,9-dihydro-4H-purin-6-amine] was 0.0346 µM. `CC(C)NCCCn1c(Sc2cc3c(cc2-c2cnoc2)OCO3)nc2c(N)ncnc21` [Compound 4C-10, 9-(3-(isopropylamino)propyl)-8-(6-(isoxazol-4-yl)benzo[d][1,3]dioxol-5-ylthio)-9H-purin-6-amine]: the EC50 was > 0.3 µM. As for `COc1ccc(-c2cc[nH]n2)c(Sc2nc3c(N)ncnc3n2CCNCC(C)(C)C)c1` [Compound 7E-6, 8-(5-methoxy-2-(1H-pyrazol-3-yl)phenylthio)-9-(2-(neopentylamino)ethyl)-9H-purin-6-amine], the EC50 worked out at 0.032 µM.

Regarding `CC(C)NCCCn1c(Sc2cc3c(cc2-c2ccoc2)OCO3)nc2c(N)ncnc21` [Compound 4C-2, 8-(6-(furan-3-yl)benzo[d][1,3]dioxol-5-ylthio)-9-(3-(isopropylamino)propyl)-9H-purin-6-amine], the EC50 is 0.086 µM. Consider `CC(C)NCCCn1c(Sc2cc3c(cc2-c2cc[nH]n2)OCO3)nc2c(N)ncnc21` [Compound 4G-6, 8-(6-(1H-pyrazol-3-yl)benzo[d][1,3]dioxol-5-ylthio)-9-(3-(isopropylamino)propyl)-9H-purin-6-amine], for which the EC50 was determined as 0.0055 µM.

`CC(C)(C)CNCCn1c(Sc2cc3c(cc2-c2ccco2)OCO3)nc2c(N)ncnc21` [Compound 4C-5, 8-(6-(furan-2-yl)benzo[d][1,3]dioxol-5-ylthio)-9-(2-(neopentylamino)ethyl)-9H-purin-6-amine]: the EC50 is 0.0065 µM. The value for `Cc1ccc(-c2cc3c(cc2Sc2nc4c(N)ncnc4n2CCNCC(C)(C)C)OCO3)o1` [Compound 4C-16, 8-(6-(5-methylfuran-2-yl)benzo[d][1,3]dioxol-5-ylthio)-9-(2-(neopentylamino)ethyl)-9H-purin-6-amine] was 0.0102 µM; that for `CC(C)NCCCn1c(Sc2cc3c(cc2C2C=CCN2)OCO3)nc2c(N)ncnc21` (stereo not shown) [Compound 4H-7, 8-(6-(2,5-dihydro-1H-pyrrol-2-yl)benzo[d][1,3]dioxol-5-ylthio)-9-(3-(isopropylamino)propyl)-9H-purin-6-amine] was 26.7 µM; that for `CC(C)NCCCn1c(Sc2cc3c(cc2C2C=CCC2)OCO3)nc2c(N)ncnc21` (stereo not shown) [Compound 4I-12, 8-(6-(cyclopent-2-enyl)benzo[d][1,3]dioxol-5-ylthio)-9-(3-(isopropylamino)propyl)-9H-purin-6-amine] was 0.394 µM. In the case of `CC(C)NCCCn1c(Sc2cc3c(cc2-c2cc[nH]n2)OCCO3)nc2c(N)ncnc21` [Compound 5D-2, 8-((7-(1H-pyrazol-3-yl)-2,3-dihydrobenzo[b][1,4]dioxin-6-yl)thio)-9-(3-(isopropylamino)propyl)-9H-purin-6-amine], the EC50 turned out to be 0.0112 µM. Consider `CC(C)NCCCn1c(Sc2cc3ccccc3cc2I)nc2c(N)ncnc21` [Compound 6B-25, 8-(3-iodonaphthalen-2-ylthio)-9-(3-(isopropylamino)propyl)-9H-purin-6-amine], for which the EC50 stood at 0.097 µM. The value for `CC(C)NCCCn1c(Sc2cc3c(cc2CC#N)OCO3)nc2c(N)ncnc21` [Compound 4E-3, 2-(6-((6-amino-9-(3-(isopropylamino)propyl)-9H-purin-8-yl)thio)benzo[d][1,3]dioxol-5-yl)acetonitrile] was 1.13 µM. Turning to `CC(C)(C)CNCCn1c(Sc2cc3c(cc2-c2cc[nH]n2)OCO3)nc2c(N)ncnc21` [Compound 4G-9, 8-(6-(1H-pyrazol-3-yl)benzo[d][1,3]dioxol-5-ylthio)-9-(2-(neopentylamino)ethyl)-9H-purin-6-amine], the EC50 was found to be 0.0055 µM. The value for `CC(C)NCCCn1c(Sc2cc3c(cc2-c2cc[nH]c2)OCO3)nc2c(N)ncnc21` [Compound 4H-3, 8-(6-(1H-pyrrol-3-yl)benzo[d][1,3]dioxol-5-ylthio)-9-(3-(isopropylamino)propyl)-9H-purin-6-amine] was 0.161 µM.
